Experiments:
[1] = biological target: E3 ubiquitin-protein ligase CBL-B (Homo sapiens, UniProt Q13191); assay: Inhibition of N-terminal Avi-tagged human CBL-B (36 to 427 residues) incubated with 60 nM Src kinase for 1.5 hrs followed by incubation with fluorescently labeled UbcH5B-Ub for 1 hr and measured by TR-FRET assay; assay type: single protein
[2] = Induction of anti-CD3/CD28 antibodies-stimulated human T cell activation at 4 uM assessed fold increase in IL-2 secretion measured by ELISA assay; assay type: functional, T cell line
[3] = Induction of anti-CD3/CD28 antibodies-stimulated human T cell activation at 1 uM assessed fold increase in IL-2 secretion measured by ELISA assay; assay type: functional, T cell line
[4] = Induction of anti-CD3/CD28 antibodies-stimulated human T cell activation at 0.3 uM assessed fold increase in IL-2 secretion measured by ELISA assay; assay type: functional, T cell line
[5] = Induction of anti-CD3 antibodies-stimulated human T cell activation at 8 uM assessed fold increase in IL-2 secretion measured by ELISA assay; assay type: functional, T cell line; further: reference of the scale not given here
[6] = Induction of anti-CD3 antibodies-stimulated human T cell activation at 1 uM assessed fold increase in IL-2 secretion measured by ELISA assay; assay type: functional, T cell line; further: reference of the scale not given here
[7] = Induction of anti-CD3/CD28 antibodies-stimulated human T cell activation at 4 uM assessed fold increase in CD25 expression measured by ELISA assay; assay type: functional, T cell line
[8] = Induction of anti-CD3/CD28 antibodies-stimulated human T cell activation at 1 uM assessed fold increase in CD25 expression measured by ELISA assay; assay type: functional, T cell line
[9] = Induction of anti-CD3/CD28 antibodies-stimulated human T cell activation at 0.3 uM assessed fold increase in CD25 expression measured by ELISA assay; assay type: functional, T cell line
[10] = Induction of anti-CD3 antibodies-stimulated human T cell activation at 8 uM assessed fold increase in CD25 expression measured by ELISA assay; assay type: functional, T cell line; further: reference of the scale not given here
[11] = Induction of anti-CD3 antibodies-stimulated human T cell activation at 1 uM assessed fold increase in CD25 expression measured by ELISA assay; assay type: functional, T cell line; further: reference of the scale not given here

Sequence of E3 ubiquitin-protein ligase CBL-B (Q13191 whole entry, the tested form may be a part): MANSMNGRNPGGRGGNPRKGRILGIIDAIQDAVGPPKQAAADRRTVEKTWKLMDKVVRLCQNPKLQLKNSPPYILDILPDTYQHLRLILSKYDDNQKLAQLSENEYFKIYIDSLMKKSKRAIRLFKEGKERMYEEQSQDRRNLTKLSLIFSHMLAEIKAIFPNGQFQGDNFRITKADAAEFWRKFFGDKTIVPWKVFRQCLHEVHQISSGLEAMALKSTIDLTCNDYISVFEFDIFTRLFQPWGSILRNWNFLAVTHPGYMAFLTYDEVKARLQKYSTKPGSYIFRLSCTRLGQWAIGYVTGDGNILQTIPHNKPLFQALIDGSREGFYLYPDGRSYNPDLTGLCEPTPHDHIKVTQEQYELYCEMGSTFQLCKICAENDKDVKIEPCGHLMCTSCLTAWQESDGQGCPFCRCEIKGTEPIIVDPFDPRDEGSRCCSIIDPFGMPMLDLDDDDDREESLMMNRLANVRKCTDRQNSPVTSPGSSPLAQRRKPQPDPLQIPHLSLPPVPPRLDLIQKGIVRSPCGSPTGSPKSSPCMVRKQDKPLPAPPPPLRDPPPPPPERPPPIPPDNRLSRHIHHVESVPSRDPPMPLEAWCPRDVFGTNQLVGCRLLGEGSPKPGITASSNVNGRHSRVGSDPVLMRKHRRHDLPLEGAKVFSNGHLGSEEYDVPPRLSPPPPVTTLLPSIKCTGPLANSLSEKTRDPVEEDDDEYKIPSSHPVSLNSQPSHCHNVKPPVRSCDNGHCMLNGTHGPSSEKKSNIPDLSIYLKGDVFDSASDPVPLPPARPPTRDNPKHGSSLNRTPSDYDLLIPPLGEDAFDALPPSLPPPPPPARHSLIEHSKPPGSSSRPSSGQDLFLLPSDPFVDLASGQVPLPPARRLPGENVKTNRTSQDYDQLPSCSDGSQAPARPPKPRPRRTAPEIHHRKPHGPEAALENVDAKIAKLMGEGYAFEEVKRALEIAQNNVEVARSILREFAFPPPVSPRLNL

Row | Compound | IC50 [1] | fold change (FC) [2] | fold change (FC) [3] | fold change (FC) [4] | fold change (FC) [5] | fold change (FC) [6] | fold change (FC) [7] | fold change (FC) [8] | fold change (FC) [9] | fold change (FC) [10] | fold change (FC) [11]
1 | Cn1cnnc1CC1(c2cccc(NC(=O)c3cc(C4CC4)nc(C4CC4)n3)c2)COC1 | < 100 nM | >=7.5 | >=7.5 | 2.51 | >=0.201 | 0.151 | 1.31 | 1.01 | 1.01 | >=1.001 | >=1.001
2 | CN1CC2CCC(C1)N2c1cc2c(c(C(F)(F)F)c1)CN(c1cccc([C@@](C)(F)C(F)(F)c3nncn3C)c1)C2=O | < 100 nM | >=7.5 | >=7.5 | 5 | >=0.201 | >=0.201 | 1.51 | 1.51 | 1.31 | >=1.001 | >=1.001
3 | C[C@H](Sc1nncn1C)c1cccc(NC(=O)c2cccc(C3CC3)n2)c1 | < 100 nM | 2.51 | 2.51 | 1.01 | 0.151 | 0.051 | 1.51 | 1.51 | 1.31 | 0.801 | <=0.6
4 | C[C@H](Sc1nncn1C)c1cccc(NC(=O)c2ccc(CO)c(C3CC3)n2)c1 | < 100 nM | 5 | 2.51 | 1.01 | 0.101 | <=0.05 | 1.31 | 1.01 | 1.01 | 0.801 | <=0.6
5 | C[C@H](Sc1nncn1C)c1cccc(NC(=O)c2ccc(C#N)c(C3CC3)n2)c1 | < 100 nM | 5 | 2.51 | 1.01 | 0.101 | <=0.05 | 1.31 | 1.31 | 1.01 | >=1.001 | 0.601
6 | Cn1cnnc1CC1(c2cccc(NC(=O)c3cc(C4CC4)nc(C(F)(F)F)n3)c2)COC1 | < 100 nM | >=7.5 | >=7.5 | 2.51 | >=0.201 | 0.151 | 1.51 | 1.31 | 1.01 | >=1.001 | 0.801
7 | C[C@H](Cc1nncn1C)c1cccc(NC(=O)c2cc(C(=O)N3CC[C@](C)(O)C3)ccn2)c1 |  | <=1 | <=1 | <=1 | <=0.05 | <=0.05 | 1.51 | 1.31 | 1.51 | <=0.6 | <=0.6
8 | C[C@H](Sc1nncn1C)c1cccc(NC(=O)c2cc(C(F)(F)F)cc(C(F)(F)F)n2)c1 |  | 1.01 | <=1 | <=1 | <=0.05 | <=0.05 | 1.01 | <=1 | <=1 | 0.601 | <=0.6
9 | Cn1cnnc1C(F)[C@](C)(F)c1cccc(N2Cc3c(cccc3C(F)(F)F)C2=O)c1 (single isomer, unassigned) |  | <=1 | <=1 | <=1 | 0.051 | <=0.05 | 1.01 | <=1 | <=1 | 0.601 | <=0.6
10 | CNC(=O)COc1ccc2cnc(C(=O)Nc3cccc([C@H](C)Sc4nncn4C)c3)cc2c1 |  | 1.01 | 1.01 | <=1 | <=0.05 | <=0.05 | 1.01 | 1.01 | 1.01 | 0.801 | <=0.6
11 | C[C@H](Sc1nncn1C)c1cccc(NC(=O)c2cncc(C(F)(F)F)n2)c1 |  | 1.01 | 1.01 | <=1 | <=0.05 | <=0.05 | 1.01 | 1.01 | <=1 | 0.601 | <=0.6

Continued, in another order:

Row | IC50 [1] | Compound | fold change (FC) [2] | fold change (FC) [3] | fold change (FC) [4] | fold change (FC) [5] | fold change (FC) [6] | fold change (FC) [7] | fold change (FC) [8] | fold change (FC) [9] | fold change (FC) [10] | fold change (FC) [11]
12 | < 100 nM | Cn1cnnc1CC1(c2cccc(N3Cc4c(cc(CN5CC(C(=O)O)C5)cc4C(F)(F)F)C3=O)c2)COC1 | 1.01 | 1.01 | 1.01 | >=0.201 | 0.151 | 1.01 | 1.01 | 1.01 | >=1.001 | 0.801
13 | < 100 nM | C[C@H](Cc1nncn1C)c1cccc(N2Cc3c(cc(C(=O)N4CC(O)C4)cc3C3CC3)C2=O)c1 | 2.51 | 1.01 | 1.01 | >=0.201 | 0.151 | 1.01 | 1.01 | 1.01 | >=1.001 | 0.801
14 | ≤ 300 nM | C[C@H](Cc1nocc1C(F)(F)F)c1cccc(N2Cc3c(cc(C(=O)N4CC[C@H](F)C4)cc3C(F)(F)F)C2=O)c1 | 2.51 | 1.01 | 1.01 | 0.101 | <=0.05 | 1.31 | 1.01 | 1.01 | >=1.001 | 0.601
15 | < 100 nM | C[C@H](Cc1nncn1C)c1cccc(NC(=O)c2nc3c(C(F)(F)F)cccc3[nH]2)c1 | >=7.5 | 5 | 2.51 | >=0.201 | >=0.201 | >=1.76 | 1.51 | 1.01 | >=1.001 | >=1.001
16 | < 100 nM | Cn1cnnc1C(F)(F)[C@](C)(F)c1cccc(N2Cc3c(cc(CN4C[C@@H](F)[C@@H](F)C4)cc3C(F)(F)F)C2=O)c1 | >=7.5 | 5 | 2.51 | >=0.201 | 0.151 | 1.51 | 1.31 | 1.31 | >=1.001 | >=1.001
17 | < 100 nM | C[C@H](c1cc2c(c(C(F)(F)F)c1)CN(c1cccc([C@@](C)(F)C(F)(F)c3nncn3C)c1)C2=O)N1CC[C@H](F)C1 | >=7.5 | >=7.5 | 2.51 | >=0.201 | >=0.201 | 1.51 | 1.31 | 1.01 | >=1.001 | >=1.001
18 | < 100 nM | Cn1cnnc1CC1(c2cccc(N3Cc4c(cccc4C(F)(F)F)C3=O)c2)COC1 | >=7.5 | 2.51 | 1.01 | 0.101 | 0.051 | 1.31 | 1.01 | 1.01 | >=1.001 | 0.801
19 | < 100 nM | C[C@H](Cc1nncn1C)c1cccc(N2Cc3c(cc(-c4ccn[nH]4)cc3C(F)(F)F)C2=O)c1 | >=7.5 | 5 | 2.51 | >=0.201 | >=0.201 | 1.31 | 1.31 | 1.01 | >=1.001 | >=1.001
20 | < 100 nM | CC(O)c1cc2c(c(C(F)(F)F)c1)CN(c1cccc([C@@](C)(F)C(F)(F)c3nncn3C)c1)C2=O (stereo not given in full) | 5 | 1.01 | 1.01 | >=0.201 | 0.051 | 1.01 | 1.01 | 1.01 | >=1.001 | 0.801

From ChEMBL document CHEMBL5050844 (2019)
